Target: menin protein (Homo sapiens (Human), UniProt O00255)
Test: biochemical
Type: binding
Conditions: FP competitive binding, menin protein 4 nM, FAM-MM2 probe 2 nM; for IC50: read-out: Menin Binding Affinity IC50
How it was run: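 Competitive fluorescence polarization assay using FAM-labelled MLL1 peptide probe FAM-MM2 (2 nM final) preincubated with menin (4 nM final) in PBS with 0.02% bovine γ-globulin, 4% DMSO and 0.01% Triton X-100. Compounds were added and incubated 30 min at room temperature. IC50 came from nonlinear regression of competition curves, with Ki also derived.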

menin protein, sequence (O00255 whole entry): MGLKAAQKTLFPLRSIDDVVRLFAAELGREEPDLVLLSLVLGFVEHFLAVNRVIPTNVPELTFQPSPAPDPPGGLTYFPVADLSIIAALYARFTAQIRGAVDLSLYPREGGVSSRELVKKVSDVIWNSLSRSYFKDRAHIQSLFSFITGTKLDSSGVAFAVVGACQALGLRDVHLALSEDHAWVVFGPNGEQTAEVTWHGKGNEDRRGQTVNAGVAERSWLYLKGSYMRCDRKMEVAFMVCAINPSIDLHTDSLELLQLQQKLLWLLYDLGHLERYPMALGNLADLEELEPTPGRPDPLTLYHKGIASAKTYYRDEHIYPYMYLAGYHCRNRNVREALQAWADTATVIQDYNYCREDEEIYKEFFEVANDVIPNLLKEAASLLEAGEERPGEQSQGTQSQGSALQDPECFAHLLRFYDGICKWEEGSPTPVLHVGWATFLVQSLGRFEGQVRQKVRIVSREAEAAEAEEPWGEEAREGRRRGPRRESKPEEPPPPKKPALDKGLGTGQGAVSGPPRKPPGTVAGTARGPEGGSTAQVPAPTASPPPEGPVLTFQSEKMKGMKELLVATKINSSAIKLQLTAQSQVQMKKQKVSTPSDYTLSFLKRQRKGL

SMILES | IC50 [nM] | Menin Binding Affinity IC50 (μM)
CN1CCc2ccccc2C1(C1CCCC1)C1CCN(CCCOc2ccc(C#N)cc2)CC1 (stereo not drawn) [compound 28, 4-(3-(4-(1-cyclopentyl-2-methyl-1,2,3,4-tetrahydroisoquinolin-1-yl)piperidin-1-yl)propoxy)benzonitrile] | 379 | –
N#Cc1ccc(OCCCN2CCC(C3(C4CCCC4)NCCc4c(F)cccc43)CC2)cc1 (stereo not drawn) [compound 29, 4-(3-(4-(1-cyclopentyl-5-fluoro-1,2,3,4-tetrahydroisoquinolin-1-yl)piperidin-1-yl)propoxy)benzonitrile] | 91 | –
N#Cc1ccc(OCCCN2CCC(C3(C4CCCC4)NCCc4cc(F)ccc43)CC2)cc1 (stereo not drawn) [compound 30, 4-(3-(4-(1-cyclopentyl-6-fluoro-1,2,3,4-tetrahydroisoquinolin-1-yl)piperidin-1-yl)propoxy)benzonitrile] | 439 | –
CN1Cc2cccc(F)c2C(C2CCCC2)(C2CCN(CCCOc3ccc(C#N)cc3)CC2)C1 (stereo not drawn) [compound 31, 4-(3-(4-(4-cyclopentyl-5-fluoro-2-methyl-1,2,3,4-tetrahydroisoquinolin-4-yl)piperidin-1-yl)propoxy)benzonitrile] | 37 | –
N#Cc1ccc(OCCCN2CCC(C3(C4CCCC4)NCCc4sccc43)CC2)cc1 (stereo not drawn) [compound 32, 4-(3-(4-(4-cyclopentyl-4,5,6,7-tetrahydrothieno[3,2-c]pyridin-4-yl)piperidin-1-yl)propoxy)benzonitrile] | 59 | –
CN1Cc2cccc(F)c2C(C2CCCC2)(C2CCN(CC3CN(c4ccc(C#N)cc4)C3)CC2)C1 (stereo not drawn) [compound 33, 4-(3-((4-(4-cyclopentyl-5-fluoro-2-methyl-1,2,3,4-tetrahydroisoquinolin-4-yl)piperidin-1-yl)methyl)azetidin-1-yl)benzonitrile] | 19 | –
CN1Cc2cccc(Cl)c2C(C2CCCC2)(C2CCN(CCCOc3ccc(C#N)cc3)CC2)C1 (stereo not drawn) [compound 34, 4-(3-(4-(5-chloro-4-cyclopentyl-2-methyl-1,2,3,4-tetrahydroisoquinolin-4-yl)piperidin-1-yl)propoxy)benzonitrile] | 1800 | –
N#Cc1ccc(OCCCN2CCC(C3(C4CCCC4)COCc4ccccc43)CC2)cc1 (stereo not drawn) [compound 35, 4-(3-(4-(4-cyclopentylisochroman-4-yl)piperidin-1-yl)propoxy)benzonitrile] | 3200 | –
N#Cc1ccc(OCCCN2CCC(C(CO)(c3ccccc3)C3CCCC3)CC2)cc1 (stereo not drawn) [compound 37, 4-(3-(4-(1-cyclopentyl-2-hydroxy-1-phenylethyl)piperidin-1-yl)propoxy)benzonitrile] | 449 | –
O=S(=O)(c1ccc(N2CC(CN3CCC(C4(C5CCCC5)COCc5ccccc54)CC3)C2)cc1)C1CC1 (stereo not drawn) [compound 38, 4-(4-cyclopentylisochroman-4-yl)-1-((1-(4-(cyclopropylsulfonyl)phenyl)azetidin-3-yl)methyl)piperidine] | 304 | –
N#Cc1ccc(OCCCN2CCC(C(CN)(c3ccccc3)C3CCCC3)CC2)cc1 (stereo not drawn) [compound 39, 4-(3-(4-(2-amino-1-cyclopentyl-1-phenylethyl)piperidin-1-yl)propoxy)benzonitrile] | 124 | –
CC(=O)NCC(c1ccccc1)(C1CCCC1)C1CCN(CCCOc2ccc(C#N)cc2)CC1 (stereo not drawn) [compound 40, N-(2-(1-(3-(4-cyanophenoxy)propyl)piperidin-4-yl)-2-cyclopentyl-2-phenylethyl)acetamide] | 817 | –
Cc1nccn1CC(c1ccccc1)(C1CCCC1)C1CCN(CCCOc2ccc(C#N)cc2)CC1 (stereo not drawn) [compound 41, 4-(3-(4-(1-cyclopentyl-2-(2-methyl-1H-imidazol-1-yl)-1-phenylethyl)piperidin-1-yl)propoxy)benzonitrile] | 166 | –
Cc1nccn1CC(c1ccccc1)(C1CCCC1)C1CCN(CC2CN(c3ccc(S(=O)(=O)C4CC4)cc3)C2)CC1 (stereo not drawn) [compound 42, 4-(1-cyclopentyl-2-(2-methyl-1H-imidazol-1-yl)-1-phenylethyl)-1-((1-(4-(cyclopropylsulfonyl)phenyl)azetidin-3-yl)methyl)piperidine] | 29 | –
N#Cc1ccc(N2CC(CN3CCC(C4(C5CCCC5)CN(C5COC5)Cc5ccccc54)CC3)C2)cc1 (stereo not drawn) [compound 44, 4-(3-((4-(4-cyclopentyl-2-(oxetan-3-yl)-1,2,3,4-tetrahydroisoquinolin-4-yl)piperidin-1-yl)methyl)azetidin-1-yl)benzonitrile] | 910 | –
O=S(=O)(c1ccc(N2CC(CN3CCC(C4(C5CCCC5)CN(CCF)Cc5ccccc54)CC3)C2)cc1)C1CC1 (stereo not drawn) [compound 47, 4-cyclopentyl-4-(1-((1-(4-(cyclopropylsulfonyl)phenyl)azetidin-3-yl)methyl)piperidin-4-yl)-2-(2-fluoroethyl)-1,2,3,4-tetrahydroisoquinoline] | 137 | –
O=S(=O)(c1ccncc1)c1ccc(N2CC(CN3CCC(C4(C5CCCC5)CN(CC5CC5)Cc5ccccc54)CC3)C2)cc1 (stereo not drawn) [compound 50, 4-cyclopentyl-2-(cyclopropylmethyl)-4-(1-((1-(4-(pyridin-4-ylsulfonyl)phenyl)azetidin-3-yl)methyl)piperidin-4-yl)-1,2,3,4-tetrahydroisoquinoline] | 7 | –

SMILES | IC50 [nM] | Menin Binding Affinity IC50 (μM)
O=S(=O)(c1ccncc1)c1ccc(N2CC(CN3CCC(C4(C5CCCC5)CN(CC5COC5)Cc5ccccc54)CC3)C2)cc1 (stereo not drawn) [compound 52, 4-cyclopentyl-2-(oxetan-3-ylmethyl)-4-(1-((1-(4-(pyridin-4-ylsulfonyl)phenyl)azetidin-3-yl)methyl)piperidin-4-yl)-1,2,3,4-tetrahydroisoquinoline] | 25 | –
O=S(=O)(c1ccncc1)c1ccc(N2CC(CN3CCC(C4(C5CCCC5)CN(Cc5ccncc5)Cc5ccccc54)CC3)C2)cc1 (stereo not drawn) [compound 53, 4-cyclopentyl-2-(pyridin-4-ylmethyl)-4-(1-((1-(4-(pyridin-4-ylsulfonyl)phenyl)azetidin-3-yl)methyl)piperidin-4-yl)-1,2,3,4-tetrahydroisoquinoline] | 1100 | –
O=S(=O)(c1ccncc1)c1ccc(N2CC(CN3CCC(C4(C5CCCC5)CN(CCN5CCOCC5)Cc5ccccc54)CC3)C2)cc1 (stereo not drawn) [compound 54, 4-(2-(4-cyclopentyl-4-(1-((1-(4-(pyridin-4-ylsulfonyl)phenyl)azetidin-3-yl)methyl)piperidin-4-yl)-3,4-dihydroisoquinolin-2(1H)-yl)ethyl)morpholine] | 11 | –
N#Cc1ccc(N2CCC(N3CCC(C4(C5CCCC5)NCCc5ccccc54)CC3)CC2)cc1 (stereo not drawn) [compound 55, 4-(4-(1-cyclopentyl-1,2,3,4-tetrahydroisoquinolin-1-yl)-[1,4′-bipiperidin]-1′-yl)benzonitrile] | 669 | –
FCC1(CF)CC(N2CCC(C3(C4CCCC4)NCCc4ccccc43)CC2)C1 (stereo not drawn) [compound 56, 1-(1-(3,3-bis(fluoromethyl)cyclobutyl)piperidin-4-yl)-1-cyclopentyl-1,2,3,4-tetrahydroisoquinoline] | 18200 | –
c1ccc(CN2CC(C3(C4CCCC4)NCCc4ccccc43)C2)cc1 (stereo not drawn) [compound 57, 1-(1-benzylazetidin-3-yl)-1-cyclopentyl-1,2,3,4-tetrahydroisoquinoline] | – | No inhibition
N#Cc1ccc(NCCCN2CCC(C3(C4CCCC4)NCCc4ccccc43)CC2)cc1 (stereo not drawn) [compound 58, 4-((3-(4-(1-cyclopentyl-1,2,3,4-tetrahydroisoquinolin-1-yl)piperidin-1-yl)propyl)amino)benzonitrile] | 241 | –
N#Cc1ccc(NCCCN2CCC(C3(C4CCCC4)NCCc4ccccc43)CC2)cn1 (stereo not drawn) [compound 59, 5-((3-(4-(1-cyclopentyl-1,2,3,4-tetrahydroisoquinolin-1-yl)piperidin-1-yl)propyl)amino)picolinonitrile] | 2300 | –
N#Cc1ccc(OCCCN2CC(C3(C4CCCC4)NCCc4ccccc43)C2)cc1 (stereo not drawn) [compound 60, 4-(3-(3-(1-cyclopentyl-1,2,3,4-tetrahydroisoquinolin-1-yl)azetidin-1-yl)propoxy)benzonitrile] | – | No inhibition
N#Cc1ccc(OCCCN2CC(C3(C4CCCC4)c4ccccc4CCN3CCCOc3ccc(C#N)cc3)C2)cc1 (stereo not drawn) [compound 61] | – | No inhibition
N#Cc1ccc(OCCCCN2CC(C3(C4CCCC4)NCCc4ccccc43)C2)cc1 (stereo not drawn) [compound 62, 4-(4-(3-(1-cyclopentyl-1,2,3,4-tetrahydroisoquinolin-1-yl)azetidin-1-yl)butoxy)benzonitrile] | 36200 | –
CN1CCc2ccccc2C1(C1CCCC1)C1CN(CCCCCOc2ccc(C#N)cc2)C1 (stereo not drawn) [compound 63, 4-((5-(3-(1-cyclopentyl-2-methyl-1,2,3,4-tetrahydroisoquinolin-1-yl)azetidin-1-yl)pentyl)oxy)benzonitrile] | 6000 | –
CN1Cc2ccccc2C(C2CCCC2)(C2CCN(CC3CN(c4ccc(S(C)(=O)=O)cc4)C3)CC2)C1 (stereo not drawn) [compound 64, 4-cyclopentyl-2-methyl-4-(1-((1-(4-(methylsulfonyl)phenyl)azetidin-3-yl)methyl)piperidin-4-yl)-1,2,3,4-tetrahydroisoquinoline] | 61 | –
CCCCC(=O)c1cc2cc(CCN3CCC(C4(C5CCCC5)NCCc5ccccc54)CC3)ccc2n1C (stereo not drawn) [compound 65, 1-(5-(2-(4-(1-cyclopentyl-1,2,3,4-tetrahydroisoquinolin-1-yl)piperidin-1-yl)ethyl)-1-methyl-1H-indol-2-yl)pentan-1-one] | 2800 | –
N#Cc1cc2cc(CCN3CCC(C4(C5CCCC5)NCCc5ccccc54)CC3)ccc2[nH]1 (stereo not drawn) [compound 66, 5-(2-(4-(1-cyclopentyl-1,2,3,4-tetrahydroisoquinolin-1-yl)piperidin-1-yl)ethyl)-1H-indole-2-carbonitrile] | 1100 | –
N#Cc1ccc2[nH]c(CCN3CCC(C4(C5CCCC5)NCCc5ccccc54)CC3)cc2c1 (stereo not drawn) [compound 67, 2-(2-(4-(1-cyclopentyl-1,2,3,4-tetrahydroisoquinolin-1-yl)piperidin-1-yl)ethyl)-1H-indole-5-carbonitrile] | 1200 | –

From patent publication US10899738B2 (THE REGENTS OF THE UNIVERSITY OF MICHIGAN, priority 2016, dated 2021)
